The values below come from paper PMC5218480 (PLoS ONE, 2017).

Molecules are shown by their SMILES.

This experiment deals with MV-4-11 cells. As to the kind of experiment: Gene expression microarray analysis (Affymetrix PrimeView) and GSEA. The class given is cell-based, human. Also on record: RFU PODN (11730768_x_at) / Fold change /veh PODN (11730768_x_at) / RFU LINC00158 (11744669_a_at) / Fold change /veh LINC00158 (11744669_a_at) / RFU DUSP10 (11751237_a_at) / Fold change /veh DUSP10 (11751237_a_at) / RFU ID3 (11757404_x_at) / Fold change /veh ID3 (11757404_x_at) / RFU PLEKHG5 (11737974_s_at) / Fold change /veh PLEKHG5 (11737974_s_at) / RFU LRRC4B (11730491_at) / Fold change /veh LRRC4B (11730491_at) / RFU GIMAP4 (11747438_a_at) / Fold change /veh GIMAP4 (11747438_a_at) / RFU KRT8 (11758183_x_at) / Fold change /veh KRT8 (11758183_x_at) / RFU CNN1 (11734310_a_at) / Fold change /veh CNN1 (11734310_a_at) / RFU VPS37D (11726825_at) / Fold change /veh VPS37D (11726825_at) / RFU C10orf10 (11716522_x_at) / Fold change /veh C10orf10 (11716522_x_at) / RFU KIR2DL2 /// KIR2DL4 /// KIR2DL5A /// KIR2DL5B /// KIR2DS1 /// KIR2DS2 /// KIR2DS3 /// KIR2DS4 /// KIR3DL3 /// KIR3DL3 /// KIR3DS1 (11738374_at) / Fold change /veh KIR2DL2 /// KIR2DL4 /// KIR2DL5A /// KIR2DL5B /// KIR2DS1 /// KIR2DS2 /// KIR2DS3 /// KIR2DS4 /// KIR3DL3 /// KIR3DL3 /// KIR3DS1 (11738374_at) / RFU C1QL1 (11718748_at) / Fold change /veh C1QL1 (11718748_at) / RFU TMPRSS4 (11747572_a_at) / Fold change /veh TMPRSS4 (11747572_a_at) / RFU HAMP (11756126_x_at) / Fold change /veh HAMP (11756126_x_at) / RFU RNFT2 (11725882_a_at) / Fold change /veh RNFT2 (11725882_a_at) / RFU NR4A2 (11747474_a_at) / Fold change /veh NR4A2 (11747474_a_at) / RFU ABCC12 (11746883_a_at) / Fold change /veh ABCC12 (11746883_a_at) / RFU TMEM136 (11760407_x_at) / Fold change /veh TMEM136 (11760407_x_at) / RFU CLDN22 /// WWC2 (11732394_at) / Fold change /veh CLDN22 /// WWC2 (11732394_at) / RFU HLA-DPB1 (11760878_x_at) / Fold change /veh HLA-DPB1 (11760878_x_at) / RFU SPINT1 (11716480_a_at) / Fold change /veh SPINT1 (11716480_a_at) / RFU GAP43 (11754022_s_at) / Fold change /veh GAP43 (11754022_s_at) / RFU A4GNT (11735810_at) / Fold change /veh A4GNT (11735810_at) / RFU PRB3 (11715151_x_at) / Fold change /veh PRB3 (11715151_x_at) / RFU TUBB4B (11761932_at) / Fold change /veh TUBB4B (11761932_at) / RFU CAPN14 (11732068_a_at) / Fold change /veh CAPN14 (11732068_a_at) / RFU TMCC2 (11721928_a_at) / Fold change /veh TMCC2 (11721928_a_at) / RFU IRGQ (11745062_a_at) / Fold change /veh IRGQ (11745062_a_at) / RFU FAM174B (11720279_a_at) / Fold change /veh FAM174B (11720279_a_at) / RFU TMPRSS4 (11748680_a_at) / Fold change /veh TMPRSS4 (11748680_a_at) / RFU FAM212B (11763350_a_at) / Fold change /veh FAM212B (11763350_a_at) / RFU PLEKHG5 (11743358_a_at) / Fold change /veh PLEKHG5 (11743358_a_at) / RFU ZSCAN30 (11745921_a_at) / Fold change /veh ZSCAN30 (11745921_a_at) / RFU CMKLR1 (11741424_a_at) / Fold change /veh CMKLR1 (11741424_a_at) / RFU LOC101060620 /// MAPK8IP1 (11723275_at) / Fold change /veh LOC101060620 /// MAPK8IP1 (11723275_at) / RFU SPTSSB (11747773_x_at) / Fold change /veh SPTSSB (11747773_x_at) / RFU PRSS12 (11739890_at) / Fold change /veh PRSS12 (11739890_at) / RFU BIN1 (11741810_x_at) / Fold change /veh BIN1 (11741810_x_at) / RFU WNT11 (11732464_a_at) / Fold change /veh WNT11 (11732464_a_at) / RFU C10orf10 (11716521_a_at) / Fold change /veh C10orf10 (11716521_a_at) / RFU C5orf56 (11738089_at) / Fold change /veh C5orf56 (11738089_at) / RFU CYB561 (11721691_x_at) / Fold change /veh CYB561 (11721691_x_at) / RFU ANKRD19P (11752326_a_at) / Fold change /veh ANKRD19P (11752326_a_at) / RFU OR2T12 /// OR2T33 /// OR2T8 (11738714_s_at) / Fold change /veh OR2T12 /// OR2T33 /// OR2T8 (11738714_s_at) / RFU VCAN (11748164_a_at) / Fold change /veh VCAN (11748164_a_at) / RFU JSRP1 (11732532_at) / Fold change /veh JSRP1 (11732532_at) / RFU KRTAP10-11 (11738290_x_at) / Fold change /veh KRTAP10-11 (11738290_x_at) / RFU MYO3A (11730013_a_at) / Fold change /veh MYO3A (11730013_a_at) / RFU EBF3 (11725865_a_at) / Fold change /veh EBF3 (11725865_a_at) / RFU CAMK2N1 (11719241_x_at) / Fold change /veh CAMK2N1 (11719241_x_at) / RFU C5orf56 (11738088_a_at) / Fold change /veh C5orf56 (11738088_a_at) / RFU OLFML3 (11715873_a_at) / Fold change /veh OLFML3 (11715873_a_at) / RFU LOC100653217 /// NTM (11731650_a_at) / Fold change /veh LOC100653217 /// NTM (11731650_a_at) / RFU MAPK11 (11762145_a_at) / Fold change /veh MAPK11 (11762145_a_at) / RFU FIZ1 (11724087_x_at) / Fold change /veh FIZ1 (11724087_x_at) / RFU OASL (11726364_x_at) / Fold change /veh OASL (11726364_x_at) / RFU SOX15 (11748057_x_at) / Fold change /veh SOX15 (11748057_x_at) / RFU CD79A (11719716_a_at) / Fold change /veh CD79A (11719716_a_at) / RFU HIST1H1D (11736915_at) / Fold change /veh HIST1H1D (11736915_at) / RFU CASKIN2 (11723855_a_at) / Fold change /veh CASKIN2 (11723855_a_at) / RFU LOC730098 (11760151_x_at) / Fold change /veh LOC730098 (11760151_x_at) / RFU OR4N2 (11742367_at) / Fold change /veh OR4N2 (11742367_at) / RFU PRRT2 (11749266_a_at) / Fold change /veh PRRT2 (11749266_a_at) / RFU SNX32 (11753110_a_at) / Fold change /veh SNX32 (11753110_a_at) / RFU CDHR5 (11726645_a_at) / Fold change /veh CDHR5 (11726645_a_at) / RFU RCAN1 (11760418_a_at) / Fold change /veh RCAN1 (11760418_a_at) / RFU FAM167A (11723789_a_at) / Fold change /veh FAM167A (11723789_a_at) / RFU FAM26E (11764081_at) / Fold change /veh FAM26E (11764081_at) / RFU ISYNA1 (11749810_s_at) / Fold change /veh ISYNA1 (11749810_s_at) / RFU ACY1 (11761880_at) / Fold change /veh ACY1 (11761880_at) / RFU 11764098_at / Fold change /veh 11764098_at / RFU SAMD14 (11745864_x_at) / Fold change /veh SAMD14 (11745864_x_at) / RFU NPB (11741838_a_at) / Fold change /veh NPB (11741838_a_at) / RFU TMPRSS6 (11731388_a_at) / Fold change /veh TMPRSS6 (11731388_a_at) / RFU KRTAP10-2 (11738614_at) / Fold change /veh KRTAP10-2 (11738614_at) / RFU ARHGAP8 /// PRR5-ARHGAP8 (11727945_x_at) / Fold change /veh ARHGAP8 /// PRR5-ARHGAP8 (11727945_x_at) / RFU KRTAP5-7 /// NADSYN1 (11734609_at) / Fold change /veh KRTAP5-7 /// NADSYN1 (11734609_at) / RFU RASL12 (11751679_a_at) / Fold change /veh RASL12 (11751679_a_at) / RFU CDKN2B (11736163_a_at) / Fold change /veh CDKN2B (11736163_a_at) / RFU PRF1 (11729649_at) / Fold change /veh PRF1 (11729649_at) / RFU, ZNF638 /// ZNF638-IT1 / Fold change vs veh, ZNF638 /// ZNF638-IT1 / RFU, PANK3 / Fold change vs veh, PANK3 / RFU, SH3YL1 / Fold change vs veh, SH3YL1 / RFU, ZEB2 / Fold change vs veh, ZEB2 / RFU, NRIP1 / Fold change vs veh, NRIP1 / RFU, PTTG1IP / Fold change vs veh, PTTG1IP / RFU, CAPN2 / Fold change vs veh, CAPN2 / RFU, MED14 / Fold change vs veh, MED14 / RFU, SNORA58 / Fold change vs veh, SNORA58 / RFU, C1orf63 / Fold change vs veh, C1orf63 / RFU, LRRFIP1 / Fold change vs veh, LRRFIP1 / RFU, NDUFAF7 / Fold change vs veh, NDUFAF7 / RFU, SLC12A2 / Fold change vs veh, SLC12A2 / RFU, IBTK / Fold change vs veh, IBTK / RFU, ESF1 / Fold change vs veh, ESF1 / Fold change vs veh, TMEM50B / RFU, TAOK1 / Fold change vs veh, TAOK1 / RFU, ACBD3 / Fold change vs veh, ACBD3 / RFU, TMA16 / Fold change vs veh, TMA16 / RFU, RWDD3 / Fold change vs veh, RWDD3 / RFU, BCAT1 / Fold change vs veh, BCAT1 / RFU, EDEM3 / Fold change vs veh, EDEM3 / RFU, TMEM33 / Fold change vs veh, TMEM33 / RFU, WDR75 / Fold change vs veh, WDR75 / RFU, AHCTF1 / Fold change vs veh, AHCTF1 / RFU, TFRC / Fold change vs veh, TFRC / RFU, ZDHHC17 / Fold change vs veh, ZDHHC17 / RFU, NOM1 / Fold change vs veh, NOM1 / RFU, ARL8B / Fold change vs veh, ARL8B / RFU, ZBTB11 / Fold change vs veh, ZBTB11 / RFU, TAMM41 / Fold change vs veh, TAMM41 / RFU, KIAA1704 /// LOC100996395 / Fold change vs veh, KIAA1704 /// LOC100996395 / RFU, ING1 / Fold change vs veh, ING1 / RFU, TRMT61B / Fold change vs veh, TRMT61B / RFU, FUBP3 / Fold change vs veh, FUBP3 / RFU, TP53 / Fold change vs veh, TP53 / RFU, TNKS2 / Fold change vs veh, TNKS2 / RFU, ZFP14 / Fold change vs veh, ZFP14 / RFU, ACTR2 / Fold change vs veh, ACTR2 / RFU, PPP3R1 / Fold change vs veh, PPP3R1 / RFU, PIK3R1 / Fold change vs veh, PIK3R1 / RFU, HNRNPA1 / Fold change vs veh, HNRNPA1 / RFU, RNF170 / Fold change vs veh, RNF170 / RFU, ZNF28 / Fold change vs veh, ZNF28 / RFU, RNGTT / Fold change vs veh, RNGTT / RFU, OGT / Fold change vs veh, OGT / RFU, BRD1 / Fold change vs veh, BRD1 / RFU, MARS / Fold change vs veh, MARS / RFU, ZNF655 / Fold change vs veh, ZNF655 / RFU, FAHD1 / Fold change vs veh, FAHD1 / RFU, BDP1 / Fold change vs veh, BDP1 / RFU, LRRCC1 / Fold change vs veh, LRRCC1 / RFU, ARID1A / Fold change vs veh, ARID1A / RFU, ZNF146 / Fold change vs veh, ZNF146 / RFU, ZNF330 / Fold change vs veh, ZNF330 / RFU, GPN3 / Fold change vs veh, GPN3 / RFU, C9orf123 / Fold change vs veh, C9orf123 / RFU, N4BP2L2 / Fold change vs veh, N4BP2L2 / RFU, ARFIP1 / Fold change vs veh, ARFIP1 / RFU, FAM179B / Fold change vs veh, FAM179B / RFU, BCL10 / Fold change vs veh, BCL10 / RFU, UHRF1BP1L / Fold change vs veh, UHRF1BP1L / RFU, BET1 / Fold change vs veh, BET1 / RFU, CNOT2 / Fold change vs veh, CNOT2 / RFU, ZNF268 / Fold change vs veh, ZNF268 / Fold change vs veh, ZNF507 / RFU, DGCR2 / Fold change vs veh, DGCR2 / RFU, WDSUB1 / Fold change vs veh, WDSUB1 / Fold change vs veh, HSP90B1 /// MIR3652 / RFU, ADSS / Fold change vs veh, ADSS / RFU, GK / Fold change vs veh, GK / RFU, ZNF148 / Fold change vs veh, ZNF148 / RFU, TAF9 / Fold change vs veh, TAF9 / RFU, SLC1A5 / Fold change vs veh, SLC1A5 / RFU, SLMO2 / Fold change vs veh, SLMO2 / RFU, ABCC4 / Fold change vs veh, ABCC4 / RFU, LOC101060439 /// RAP1B / Fold change vs veh, LOC101060439 /// RAP1B / RFU, RFX7 / Fold change vs veh, RFX7 / RFU, GTPBP10 / Fold change vs veh, GTPBP10 / RFU, CNEP1R1 / Fold change vs veh, CNEP1R1 / RFU, BIVM-ERCC5 /// ERCC5 / Fold change vs veh, BIVM-ERCC5 /// ERCC5 / RFU, ILF3 / Fold change vs veh, ILF3 / RFU 11762660_at / Fold change /veh 11762660_at / RFU VCAN (11757783_s_at) / Fold change /veh VCAN (11757783_s_at) / RFU DDX43 (11728927_at) / Fold change /veh DDX43 (11728927_at) / RFU KRT8 (11758188_x_at) / Fold change /veh KRT8 (11758188_x_at) / RFU NKD1 (11759106_at) / Fold change /veh NKD1 (11759106_at) / RFU SRD5A1 (11742802_a_at) / Fold change /veh SRD5A1 (11742802_a_at) / RFU TPSAB1 /// TPSB2 (11721975_s_at) / Fold change /veh TPSAB1 /// TPSB2 (11721975_s_at) / RFU GSTM3 (11746129_a_at) / Fold change /veh GSTM3 (11746129_a_at) / RFU IL23R (11737362_x_at) / Fold change /veh IL23R (11737362_x_at) / RFU TMEM51 (11727254_a_at) / Fold change /veh TMEM51 (11727254_a_at) / RFU PIWIL2 (11732686_x_at) / Fold change /veh PIWIL2 (11732686_x_at) / RFU ORM1 (11744905_x_at) / Fold change /veh ORM1 (11744905_x_at) / RFU CCDC152 (11743942_at) / Fold change /veh CCDC152 (11743942_at) / RFU ECM1 (11717891_a_at) / Fold change /veh ECM1 (11717891_a_at) / RFU IL23R (11748794_a_at) / Fold change /veh IL23R (11748794_a_at) / RFU TNFAIP8L3 (11732012_x_at) / Fold change /veh TNFAIP8L3 (11732012_x_at) / RFU MBOAT4 (11741988_at) / Fold change /veh MBOAT4 (11741988_at) / RFU 11764193_at / Fold change /veh 11764193_at / RFU TMEM53 (11763286_at) / Fold change /veh TMEM53 (11763286_at) / RFU MAGEB2 (11727129_at) / Fold change /veh MAGEB2 (11727129_at) / RFU TMEM200A (11744735_a_at) / Fold change /veh TMEM200A (11744735_a_at) / RFU CCDC152 (11751479_a_at) / Fold change /veh CCDC152 (11751479_a_at) / RFU FAM211A (11726209_a_at) / Fold change /veh FAM211A (11726209_a_at) / RFU RGS16 (11746705_a_at) / Fold change /veh RGS16 (11746705_a_at) / RFU VCAN (11755009_s_at) / Fold change /veh VCAN (11755009_s_at) / RFU RHOB (11743442_s_at) / Fold change /veh RHOB (11743442_s_at) / RFU RGS16 (11720943_a_at) / Fold change /veh RGS16 (11720943_a_at) / RFU RGS16 (11720944_at) / Fold change /veh RGS16 (11720944_at) / RFU, VPS4B / Fold change vs veh, VPS4B / RFU, CREB1 / Fold change vs veh, CREB1 / RFU, DNAJC13 / Fold change vs veh, DNAJC13 / RFU, GNAQ / Fold change vs veh, GNAQ / RFU, CDK5R1 / Fold change vs veh, CDK5R1 / RFU, ZRANB3 / Fold change vs veh, ZRANB3 / RFU, CUL4A / Fold change vs veh, CUL4A / RFU, CCNY / Fold change vs veh, CCNY / RFU, UFL1 / Fold change vs veh, UFL1 / RFU, COG3 / Fold change vs veh, COG3 / RFU, DIAPH2 / Fold change vs veh, DIAPH2 / RFU, SKA2 / Fold change vs veh, SKA2 / RFU, AFF3 / Fold change vs veh, AFF3 / RFU, LMF1 / Fold change vs veh, LMF1 / RFU, IPO11 / Fold change vs veh, IPO11 / RFU, DFFB / Fold change vs veh, DFFB / RFU, FOXP1 / Fold change vs veh, FOXP1 / RFU, CARD8 / Fold change vs veh, CARD8 / RFU, STRN3 / Fold change vs veh, STRN3 / RFU, ADK / Fold change vs veh, ADK / RFU, RASSF2 / Fold change vs veh, RASSF2 / RFU, WIPF1 / Fold change vs veh, WIPF1 / RFU, LARP1B / Fold change vs veh, LARP1B / RFU, RASA1 / Fold change vs veh, RASA1 / RFU, RB1 / Fold change vs veh, RB1 / RFU, PPFIA1 / Fold change vs veh, PPFIA1 / RFU, MAT2A / Fold change vs veh, MAT2A / RFU, CCT5 / Fold change vs veh, CCT5 / RFU, WDR92 / Fold change vs veh, WDR92 / RFU, CUX1 / Fold change vs veh, CUX1 / RFU, TTC7A / Fold change vs veh, TTC7A / RFU, TMEM135 / Fold change vs veh, TMEM135 / RFU, DEPTOR / Fold change vs veh, DEPTOR / RFU, CPM / Fold change vs veh, CPM / RFU, DNAJB6 / Fold change vs veh, DNAJB6 / RFU, CACNA2D3 / Fold change vs veh, CACNA2D3 / RFU, DTX4 / Fold change vs veh, DTX4 / RFU, TFCP2 / Fold change vs veh, TFCP2 / RFU, GMCL1 /// GMCL1P1 / Fold change vs veh, GMCL1 /// GMCL1P1 / RFU, AEBP2 / Fold change vs veh, AEBP2 / RFU, SNHG1 /// SNORD22 /// SNORD25 /// SNORD26 /// SNORD27 /// SNORD28 /// SNORD29 /// SNORD31 / Fold change vs veh, SNHG1 /// SNORD22 /// SNORD25 /// SNORD26 /// SNORD27 /// SNORD28 /// SNORD29 /// SNORD31 / Fold change (Aza/veh), C12orf56 (ProbeSet 11735607_a_at) / Fold change (ACY-1035/veh), C12orf56 (ProbeSet 11735607_a_at) / Fold change (Aza/veh), FGFR1OP (ProbeSet 11751329_s_at) / Fold change (ACY-1035/veh), FGFR1OP (ProbeSet 11751329_s_at) / Fold change (Aza/veh), VPS36 (ProbeSet 11739960_a_at) / Fold change (ACY-1035/veh), VPS36 (ProbeSet 11739960_a_at) / RFU SYPL1 (11715823_x_at) / Fold change /veh SYPL1 (11715823_x_at) / RFU IGFBP7 (11715501_s_at) / Fold change /veh IGFBP7 (11715501_s_at) / RFU REEP3 (11722064_at) / Fold change /veh REEP3 (11722064_at) / RFU IGLL1 (11728026_x_at) / Fold change /veh IGLL1 (11728026_x_at): dose or concentration left out as unconfirmed. The settings on record: MV-4-11 cells, 48 hours.

`Nc1ccc(-c2cccs2)cc1NC(=O)c1ccc2c(c1)cc(C1CC1)n2CCN1CCOCC1` [ACY-1035]: the “RFU C5orf56 (11738089_at)” value is recorded as 10.10 RFU.
